Patent US20210403485A1, “PYRAZOLOPYRIMIDINE DERIVATIVE AS SELECTIVE TRK INHIBITOR” (SHANDONG LUYE PHARMACEUTICAL CO., LTD., priority 2018, published 2021)

Assays:
[1] = target: T1, ALK (Homo sapiens, UniProt Q9UM73); experiment: Kinase inhibitory activity (33P-ATP, filtration-binding method, Reaction Biology Corp.); assay type: biochemical; conditions: read-out: Half maximal inhibitory concentration IC50 for kinases, ALK
T1 construct: purchased Reaction Biology Corp
Outline: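 Radiometric kinase assay: enzyme-compound mixture preincubated 20 minutes at room temperature, then reaction started with ^33P-ATP and run 120 minutes at room temperature. Filtration-binding readout. Activity expressed relative to DMSO control; IC50 from fitted dose-response curves.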

[2] = target: T2, Ba/F3 SLC34A2-ROS1-WT (Homo sapiens, UniProt P08922); experiment: Inhibitory activity against cell proliferation (CellTiter-Glo, 72 hours); assay type: cell-based; conditions: read-out: Half maximal inhibitory concentration IC50 of cells, Ba/F3 SLC34A2-ROS1-WT
T2 construct: fused on or other part: N-terminal part of SLC34A2 as fusion partner (part of the key); O95436 (Sodium-dependent phosphate transport protein 2B)
T2 sequence (P08922 whole entry, stated change not applied, the tested form may be a part): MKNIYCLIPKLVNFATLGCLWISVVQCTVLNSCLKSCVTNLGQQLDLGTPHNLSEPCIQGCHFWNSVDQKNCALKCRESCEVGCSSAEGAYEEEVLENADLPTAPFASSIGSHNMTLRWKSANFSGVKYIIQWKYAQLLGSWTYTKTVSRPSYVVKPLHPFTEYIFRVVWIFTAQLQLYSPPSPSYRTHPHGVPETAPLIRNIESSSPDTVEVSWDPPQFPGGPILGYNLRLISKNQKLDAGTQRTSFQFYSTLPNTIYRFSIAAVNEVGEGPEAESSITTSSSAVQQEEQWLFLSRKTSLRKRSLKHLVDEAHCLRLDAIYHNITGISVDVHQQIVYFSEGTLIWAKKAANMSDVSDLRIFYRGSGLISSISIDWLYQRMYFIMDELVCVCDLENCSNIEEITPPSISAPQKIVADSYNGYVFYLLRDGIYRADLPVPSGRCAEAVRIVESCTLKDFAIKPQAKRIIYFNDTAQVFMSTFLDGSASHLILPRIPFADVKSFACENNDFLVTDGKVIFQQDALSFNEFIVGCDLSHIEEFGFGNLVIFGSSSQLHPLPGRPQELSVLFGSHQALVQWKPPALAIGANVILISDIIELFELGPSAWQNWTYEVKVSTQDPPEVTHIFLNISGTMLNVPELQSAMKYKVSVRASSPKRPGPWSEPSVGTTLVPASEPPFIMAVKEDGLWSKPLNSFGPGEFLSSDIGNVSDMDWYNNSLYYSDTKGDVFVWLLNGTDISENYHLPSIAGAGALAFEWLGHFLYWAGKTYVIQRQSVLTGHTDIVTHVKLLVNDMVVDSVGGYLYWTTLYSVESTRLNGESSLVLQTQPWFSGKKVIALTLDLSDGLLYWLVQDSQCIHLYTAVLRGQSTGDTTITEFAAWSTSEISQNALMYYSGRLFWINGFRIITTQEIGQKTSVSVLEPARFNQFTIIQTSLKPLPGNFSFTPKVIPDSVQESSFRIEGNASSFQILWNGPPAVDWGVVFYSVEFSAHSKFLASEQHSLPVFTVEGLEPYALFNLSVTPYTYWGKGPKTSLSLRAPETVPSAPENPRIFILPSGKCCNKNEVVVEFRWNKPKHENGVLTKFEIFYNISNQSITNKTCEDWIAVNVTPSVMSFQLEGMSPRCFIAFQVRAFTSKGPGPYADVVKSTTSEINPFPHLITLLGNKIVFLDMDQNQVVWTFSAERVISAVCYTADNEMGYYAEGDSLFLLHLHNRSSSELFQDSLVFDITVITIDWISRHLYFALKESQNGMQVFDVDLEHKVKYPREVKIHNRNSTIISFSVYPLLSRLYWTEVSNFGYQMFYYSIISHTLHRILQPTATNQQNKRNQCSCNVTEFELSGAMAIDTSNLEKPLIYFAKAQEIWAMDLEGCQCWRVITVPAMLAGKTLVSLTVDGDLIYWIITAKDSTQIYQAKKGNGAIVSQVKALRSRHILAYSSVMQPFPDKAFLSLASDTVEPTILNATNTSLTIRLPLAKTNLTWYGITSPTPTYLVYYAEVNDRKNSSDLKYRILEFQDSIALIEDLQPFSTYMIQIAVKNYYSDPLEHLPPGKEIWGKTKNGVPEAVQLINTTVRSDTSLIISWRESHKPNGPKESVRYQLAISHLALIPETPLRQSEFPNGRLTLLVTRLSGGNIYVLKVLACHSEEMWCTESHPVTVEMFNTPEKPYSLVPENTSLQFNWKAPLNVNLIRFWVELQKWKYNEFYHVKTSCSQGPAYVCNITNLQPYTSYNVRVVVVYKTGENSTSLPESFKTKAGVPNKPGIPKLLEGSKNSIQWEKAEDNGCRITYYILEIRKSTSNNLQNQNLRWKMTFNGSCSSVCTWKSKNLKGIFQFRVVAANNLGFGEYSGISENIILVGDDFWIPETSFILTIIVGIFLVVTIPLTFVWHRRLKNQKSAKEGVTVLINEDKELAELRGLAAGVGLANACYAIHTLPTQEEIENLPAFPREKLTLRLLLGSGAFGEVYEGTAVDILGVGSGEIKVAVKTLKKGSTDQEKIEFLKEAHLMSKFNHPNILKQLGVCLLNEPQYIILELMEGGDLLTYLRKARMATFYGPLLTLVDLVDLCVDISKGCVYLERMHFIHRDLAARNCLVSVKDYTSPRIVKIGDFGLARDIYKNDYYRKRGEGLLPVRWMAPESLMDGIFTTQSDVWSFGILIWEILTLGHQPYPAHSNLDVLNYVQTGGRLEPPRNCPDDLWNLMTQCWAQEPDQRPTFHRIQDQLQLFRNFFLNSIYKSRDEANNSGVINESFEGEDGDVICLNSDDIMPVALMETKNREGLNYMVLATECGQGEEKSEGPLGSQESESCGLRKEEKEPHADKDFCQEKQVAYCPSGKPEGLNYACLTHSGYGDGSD
Outline: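 Log-phase Ba/F3 cells (trypan blue viability above 90%) were treated in triplicate with a 9-point, 3-fold compound series. ATP-dependent luminescence was read after CellTiter-Glo addition, and IC50 values came from nonlinear sigmoidal dose-response fits.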

[3] = target: T3, BaF3 ETV6-NTRK3-G623R (Homo sapiens, UniProt Q16288, G623R, cells depend on it); experiment: as above; assay type: cell-based; conditions: read-out: Half maximal inhibitory concentration IC50 of cells, BaF3 ETV6-NTRK3-G623R
T3 construct: fused on or other part: N-terminal part of ETV6 (TEL) as fusion partner (part of the key); P41212 (Transcription factor ETV6)
T3 sequence (Q16288 whole entry G623R, the tested form may be a part): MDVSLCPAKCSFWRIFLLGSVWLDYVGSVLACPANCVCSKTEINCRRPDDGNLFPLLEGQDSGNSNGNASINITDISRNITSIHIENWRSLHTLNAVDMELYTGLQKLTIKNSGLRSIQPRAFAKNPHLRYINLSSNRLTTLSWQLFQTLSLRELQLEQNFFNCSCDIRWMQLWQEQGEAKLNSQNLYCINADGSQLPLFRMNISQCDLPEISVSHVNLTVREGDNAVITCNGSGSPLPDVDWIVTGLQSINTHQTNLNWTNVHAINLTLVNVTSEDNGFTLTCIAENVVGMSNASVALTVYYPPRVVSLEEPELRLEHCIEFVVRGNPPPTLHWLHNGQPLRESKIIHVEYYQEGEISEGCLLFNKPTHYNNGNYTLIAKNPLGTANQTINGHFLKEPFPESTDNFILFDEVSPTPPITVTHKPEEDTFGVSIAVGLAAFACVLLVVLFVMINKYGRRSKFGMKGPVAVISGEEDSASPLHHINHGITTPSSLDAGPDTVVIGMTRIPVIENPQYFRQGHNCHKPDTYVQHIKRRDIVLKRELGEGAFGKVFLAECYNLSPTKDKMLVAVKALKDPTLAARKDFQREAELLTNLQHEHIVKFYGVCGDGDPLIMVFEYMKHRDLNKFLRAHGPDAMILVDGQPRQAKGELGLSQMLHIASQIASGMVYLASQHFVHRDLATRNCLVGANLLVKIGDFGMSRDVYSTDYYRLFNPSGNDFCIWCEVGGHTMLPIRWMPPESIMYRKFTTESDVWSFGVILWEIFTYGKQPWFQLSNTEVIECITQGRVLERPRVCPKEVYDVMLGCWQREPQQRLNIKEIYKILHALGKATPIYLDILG
Outline: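 Ba/F3 stable fusion lines were seeded at 5000 cells/well (viability >90% by trypan blue) and allowed to settle overnight at 37 °C, 5% CO2. Compounds were then added as a 9-point, 3-fold series from a 10-fold working solution with a top concentration of 10 μM, in triplicate. IC50 values came from nonlinear sigmoidal fits of luminescence.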

[4] = test system: Ba/F3 ETV6-NTRK3 cells; experiment: Efficacy test in animals: subcutaneous xenograft, intragastric administration; assay type: in vivo, nude mice; conditions: 100 mg/kg bid
Experimental: (§1) Cells in the logarithmic growth phase were collected and resuspended in serum-free medium to a cell concentration of 2-4×10^7 cells/mL. An equal volume of matrigel was added to the cell suspension to achieve a final cell concentration of 1-2×10^7 cells/mL. 0.2 mL of tumor cell suspension was subcutaneously inoculated at the scapula of each nude mouse with the inoculation amount of 2-4×10^6 cells/mouse to prepare the animal models.

[5] = test system: Ba/F3 ETV6-NTRK3-G623R cells; experiment: as above; assay type: in vivo, nude mice; conditions: 100 mg/kg bid
Experimental: as §1

T1 sequence (Q9UM73 19-1620): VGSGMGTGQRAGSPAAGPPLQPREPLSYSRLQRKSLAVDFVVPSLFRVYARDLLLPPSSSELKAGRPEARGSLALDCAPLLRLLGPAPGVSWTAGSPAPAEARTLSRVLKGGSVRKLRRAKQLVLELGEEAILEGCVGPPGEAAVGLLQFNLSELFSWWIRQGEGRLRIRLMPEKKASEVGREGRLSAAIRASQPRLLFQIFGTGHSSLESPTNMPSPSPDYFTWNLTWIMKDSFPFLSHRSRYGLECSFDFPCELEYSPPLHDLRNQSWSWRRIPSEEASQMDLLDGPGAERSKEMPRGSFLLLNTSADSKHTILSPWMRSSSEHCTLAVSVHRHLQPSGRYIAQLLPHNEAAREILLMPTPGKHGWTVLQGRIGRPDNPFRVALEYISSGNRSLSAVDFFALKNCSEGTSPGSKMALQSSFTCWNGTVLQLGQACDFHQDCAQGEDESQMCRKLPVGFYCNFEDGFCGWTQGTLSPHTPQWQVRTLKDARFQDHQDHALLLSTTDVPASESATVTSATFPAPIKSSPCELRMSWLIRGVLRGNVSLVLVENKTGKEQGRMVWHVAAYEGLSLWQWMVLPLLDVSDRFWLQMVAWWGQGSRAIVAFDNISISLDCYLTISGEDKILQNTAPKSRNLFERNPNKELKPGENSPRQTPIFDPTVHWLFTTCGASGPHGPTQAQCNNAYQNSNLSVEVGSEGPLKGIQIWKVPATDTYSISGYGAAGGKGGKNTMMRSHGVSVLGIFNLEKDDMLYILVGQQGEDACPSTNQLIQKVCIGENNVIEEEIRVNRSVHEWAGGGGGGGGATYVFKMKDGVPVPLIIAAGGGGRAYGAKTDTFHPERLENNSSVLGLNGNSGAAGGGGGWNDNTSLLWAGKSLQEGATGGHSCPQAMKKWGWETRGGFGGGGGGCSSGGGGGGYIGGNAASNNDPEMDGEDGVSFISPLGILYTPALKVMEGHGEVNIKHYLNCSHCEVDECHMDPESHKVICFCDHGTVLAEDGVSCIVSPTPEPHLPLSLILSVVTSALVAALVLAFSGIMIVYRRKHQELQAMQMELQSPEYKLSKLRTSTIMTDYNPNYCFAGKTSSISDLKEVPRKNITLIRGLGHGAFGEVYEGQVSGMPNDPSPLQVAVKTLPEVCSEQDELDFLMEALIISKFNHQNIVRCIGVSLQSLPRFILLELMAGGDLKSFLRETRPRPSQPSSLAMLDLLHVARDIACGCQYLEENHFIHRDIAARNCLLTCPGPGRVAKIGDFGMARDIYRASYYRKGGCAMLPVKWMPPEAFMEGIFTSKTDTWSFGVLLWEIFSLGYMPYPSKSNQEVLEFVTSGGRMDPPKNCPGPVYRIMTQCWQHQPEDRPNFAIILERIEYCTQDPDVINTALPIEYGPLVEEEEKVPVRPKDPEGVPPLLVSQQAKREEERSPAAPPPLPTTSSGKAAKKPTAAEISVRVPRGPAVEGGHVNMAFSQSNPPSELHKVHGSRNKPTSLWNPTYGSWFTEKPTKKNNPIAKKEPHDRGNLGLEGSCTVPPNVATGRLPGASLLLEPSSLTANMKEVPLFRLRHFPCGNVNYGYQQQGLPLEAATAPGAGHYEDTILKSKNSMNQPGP

## C[C@@H]1CCc2ncc(F)cc2[C@H]2CCCN2c2ccn3ncc(c3n2)C(=O)N1 [LOXO-195, reference compound]
[1]
  IC50: 274 nM
[2]
  GI50: 36.7 nM
[3]
  GI50: 2.7 nM
[4]; Day 0
  Tumor volume: 303.85 ± 42.83 mm^3
[4]; Day 3
  Tumor volume: 351.06 ± 144.65 mm^3
[4]; Day 5
  Tumor volume: 216.92 ± 62.19 mm^3
[4]; Day 7
  Tumor volume: 174.13 ± 102.49 mm^3
[4]; Day 9
  Tumor volume: 206.69 ± 107.53 mm^3
[4]; Day 11
  Tumor volume: 196.07 ± 88.87 mm^3
[4]; day of dissection
  TGI (tumor growth inhibition rate): 94.80%
[4]; end of the test
  Tumor inhibition rate (by tumor weight): 94.86%
  Tumor weight: 0.09 ± 0.07 g
[5]; Day 0
  Tumor volume: 200.27 ± 30.38 mm^3
[5]; Day 3
  Tumor volume: 282.91 ± 82.61 mm^3
[5]; Day 5
  Tumor volume: 306.00 ± 115.66 mm^3
[5]; Day 7
  Tumor volume: 364.50 ± 212.47 mm^3
[5]; Day 9
  Tumor volume: 334.53 ± 184.22 mm^3
[5]; Day 11
  Tumor volume: 345.18 ± 306.01 mm^3
[5]; day of dissection
  TGI (tumor growth inhibition rate): 90.07%
[5]; end of the test
  Tumor inhibition rate (by tumor weight): 91.50%
  Tumor weight: 0.15 ± 0.14 g
